Where a SMILES comes first, the peptide text is derived from it. Bridges are numbered along the chain shown (N, C = ends). [ ]: non-standard residue; d: D form. Phe(4-NH2) = Nc1ccc(C[C@H](N)C(=O)O)cc1; 2Nal = N[C@@H](Cc1ccc2ccccc2c1)C(=O)O; Cit = NC(=O)NCCC[C@H](N)C(=O)O; Gly(N(CH2)3NH2) = NCCCNCC(=O)O; Nlys = NCCCCNCC(=O)O

One series is described as follows: in vitro. The format is cell-based. The method, then: The cytotoxicity of the peptides to HELA cells (Acc57) and COS-7 cells (CRL-1651) was determined using the MTl reduction assay [see ref. 6 and 7, below]. Briefly the method was as follows: HELA cells and COS-7 cells were seeded at 7.0·10^3 and, respectively, 4.5·10^3 cells per well and grown in 96-well microtiter plates for 24 hours at 37° C. at 5% CO2. At this point, time zero (Tz) was determined by MTT reduction (see below). The supernatant of the remaining wells was discarded and fresh medium and the peptides in serial dilutions of 12.5, 25 and 50 μM were pipeted into the wells. Each peptide concentration was assayed in triplicate. Incubation of the cells was continued for 48 hours at 37° C. at 5% CO2. Wells were then washed once with PBS and subsequently 100 μl MTT reagent (0.5 mg/mL in medium RPMI1640 and, respectively, DMEM) was added to the wells. This was incubated at 37° C. for 2 hours and subsequently the medium was aspirated and 100 μl isopropanol was added to each well. The absorbance at 595 nm of the solubilized product was measured (OD595peptide). For each concentration averages were calculated from triplicates. The percentage of growth was calculated as follows: (OD595peptide-OD595Tz-OD595Empty well)/(OD595Tz-OD595Empty well)×100% and was plotted for each peptide concentration.
The LC 50 values (Lethal Concentration, defined as the concentration that kills 50% of the cells) were determined for each peptide by using the trend line function of EXCEL (Microsoft Office 2000) for the concentrations (50, 25, 12.5 and 0 μM), the corresponding growth percentages and the value −50, (=TREND(C50:C0,%50:%0,−50))
(§1) All fine chemicals came from Merck (D)armstadt, Germany).

Series [1] relates to human red blood cells (hRBC). The format is cell-based. Particulars: red cells of human, 1 h. The method, then: The peptides were tested for their hemolytic activity against human red blood cells (hRBC). Fresh hRBC were washed three times with phosphate buffered saline (PBS) by centrifugation for 10 min at 2000×g. Peptides at a concentration of 100 μM were incubated with 20% v/v hRBC for 1 hour at 37-C. The final erythrocyte concentration was approximately 0.9×10^9 cells per mL. A value of 0% resp. 100% cell lysis was determined by incubation of the hRBC in the presence of PBS alone and respectively 0.1% Triton X-100 in H2O. The samples were centrifuged and the supernatant was 20-fold diluted in PBS buffer and the optical density (OD) of the sample at […] was measured. The 100% lyses value (OD540H2O) gave an OD540 of approximately 1.3-1.8. Percent hemolysis was calculated as follows: (OD540peptide/OD540H2O)×100%.

A further series has as its target CCRF-CEM cells (Homo sapiens, UniProt P61073). Particulars: read-out: IC50 (μM) Cell migration assay; CCRF-CEM cells migrating to 1 nM SDF-1, 4 hours.
A further series has as its target T1, CXCR4 (Homo sapiens, UniProt P61073).
T1 construct: expressed in transfected cells
Put plainly: Ca2+ assay: CXCR4 antagonizing activity of the peptides. Type of series: cell-based. The settings on record: CXCR4 transfected pre-B cells, Fura-2 fluorescence, 37° C. The method, then:
2.2. Ca^2+− assay: CXCR4Antagonizing Activity of the Peptides
3-4 Mio CXCR4 transfected pre-B cells [see references 1, 2 and 3, below] per measurement were resuspended in 200 μl MSB (20 mM 4-(2-Hyddroxyethyl)-piperazin-1-ethansulfonic acid (HEPES), 136 mM NaCl, 4.8 mM KCl and 1 mM CaCl2) containing 5 mM D-Glucose and were loaded with 0.75 μl of 1 mM Fura-2-acetoxymethylester for 17 minutes at 37° C. The cells were washed free from Fura-2-AM with a platelet centrifuge and resuspended in 800 R1 MSB containing 5 mM D-Glucose. The peptides to be administered were diluted to a 100 fold end concentration in MSB/0.2% PPL, and 8 pl were injected. [Ca^2+ ]i-dependent fluorescence change in response to single or sequential stimulation with the peptide was recorded with a fluorimeter at an excitation wavelength of 340 nm and an end emission wavelength of 510 nm [see ref. 4, below]. Measurements were done under continuous stirring at 37° C. The signal intension was calibrated with 3 mM4 CaCl2/1 nM lonomycin (maximal fura-2-acetoxymethylester saturation) and […] MnCl2 (minimal Fura-2-acetoxymethylester saturation) and [Ca^2+]i-changes are presented in % fura-2-acetoxymethylester saturation.
MSB: 20 nmM HEPES, 136 mM NaCl, 4.8 mM KCl, 1 mM CaCl2.2H2O, pH 7.4; Osmolarity: 310 mOsm adjusted with NaOH or HCl, adjusted with dH2O or PBS.
MSB plus: 5 mM D-glucose in MSB (50 mg/50 mL).
Fura 2-acetoxymethylester: 1 mM stock solution in dimethylsulfoxide.

The test system of series [2] is 'CCR5' cells / Hut/4-3 cells co-cultivation. Put plainly: FIGS-Assay (co-cultivated cell cultures, beta-galactosidase/ONPG read-out). Type of series: cell-based. Particulars: at 200 nM; 48 hours of co-cultivation. As to the method:
The assay was performed according to ref. 5, below. Stock dilutions of the peptides (10 mM) were prepared by dissolving in 10 mM Tris-HCl at room temperature. Stock solutions were kept at +4° C., light protected. Working dilutions were prepared extemporaneously by serial dilution in Phosphate Buffered Saline (PBS) and added in a final volume of 10 μL directly to the cell cultures. After 48 hours of co-cultivation the cultures were rinsed with PBS and then exposed to glutaraldehyde/formaldehyde (0.2%/2%) in PBS for five minutes. For photometric quantification the fixed cultures were subsequently incubated with ortho-nitro-phenyl-galactopyranoside (ONPG) as a O-galactosidase substrate, which was enzymatically converted into the chromophore ortho-nitrophenol (ONP). The read out is directly obtained by measuring optical density of wells at 405 nm in an IEMS 96 well-plate reader.
as §1

T1 sequence (P61073 whole entry): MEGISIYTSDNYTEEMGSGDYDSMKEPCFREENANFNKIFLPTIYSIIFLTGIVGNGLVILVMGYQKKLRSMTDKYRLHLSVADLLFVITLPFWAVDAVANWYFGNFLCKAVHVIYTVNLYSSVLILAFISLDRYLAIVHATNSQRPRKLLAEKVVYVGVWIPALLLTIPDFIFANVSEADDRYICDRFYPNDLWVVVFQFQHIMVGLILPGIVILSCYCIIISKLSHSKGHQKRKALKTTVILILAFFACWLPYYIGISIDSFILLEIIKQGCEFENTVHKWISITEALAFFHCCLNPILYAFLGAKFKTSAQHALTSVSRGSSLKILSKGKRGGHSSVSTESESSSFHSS
CCRF-CEM cells, sequence (P61073 whole entry): as above
Experimental for CCRF-CEM cells: BELA cells and CCRF-CEM cells were maintained in RPMI1640 plus 5% FBS, Pen/Strept and 2 mM L-Glutamine. […] All cell lines were grown at 37° C. at 5% CO2. Cell media, media supplements, PBS-buffer, HEPES, Pen/Strept., L-Glutamine and sera were purchased from Gibco (Pailsey, UK). All fine chemicals came from Merck (D)armstadt, Germany).
Chemotactic Assay (Cell Migration Assay)
The chemotactic response of CCRF-CEM cells to a gradient of stromal cell-derived factor 1 a (SDF-1) was measured using disposable assay plates from Neuroprobe (5 μ pore size) (Gaithersburg, Md.), according to the manufacturer's directions and references therein [especially ref. 8, below]. Briefly, one 175 cm^2 flask was washed once with Dubecco's phosphate buffered saline (DPBS), and trypsinized for 10 minutes or until cells had lifted. The trypsin was neutralized by the addition of fresh medium containing serum and the cells were pelleted, washed once in DPBS, and resuspended at 1-0.5×10^7 cells/ml in RPM!+0.5% bovine serum albumin (BSA). 451 μl of cell suspension were mixed with 5μ of 10-fold concentrated PEM peptide diluted in the same assay medium. 35 μl of this mixture were applied to the top of the assay filter. The cells were allowed to migrate (at 37°) into the bottom chamber of the assay plate containing 1 nM SDF-1. After 4 hours, the filter was removed and MTT was added to the migrated cells to a final concentration of 0.5 mg/ml, and incubated for a further 4 hours. After labeling with MTT, all medium was removed and 100 μl of isopropanol+10 mM HCl were added to the cells. The optical absorbance at 595 nm (ABS595) was read using a Tecan Genios plate reader with Magellan software. The number of cells migrated was determined by comparing ABS595 values against a standard curve generated with a known number of cells in the assay plate and were plotted against SDF-1 concentration to obtain a sigmoidal curve and to determine the IC50 values. The values for IC50 were determined using the Trendline function in Microsoft Excel by fitting a logarithmic curve to the averaged datapoints.

As usually defined, the CC50 is the concentration giving 50% cytotoxicity. The low end stands for harm at low concentration, the high end for better tolerance by the cells. `N=C(N)NCCC[C@H](NC(=O)[C@@H]1CSSC[C@H](NC(=O)[C@H](Cc2ccc3ccccc3c2)NC(=O)[C@H](CCCNC(=N)N)NC(=O)[C@@H](N)CCCNC(=N)N)C(=O)N[C@@H](Cc2ccc(O)cc2)C(=O)N[C@@H](CCCNC(N)=O)C(=O)N[C@@H](CCCCN)C(=O)N2CCC[C@@H]2C(=O)N2CCC[C@H]2C(=O)N[C@@H](Cc2ccc(O)cc2)C(=O)N[C@@H](CCCNC(=N)N)C(=O)N[C@@H](CCCNC(N)=O)C(=O)N1)C(N)=O` [Example 7] (H-RR[2Nal]CY[Cit]K[dP]PYR[Cit]CR-NH2; disulfide 4-13; N-terminus assumed) came in with a CC50 in the series “in vitro” of 56000 nM. For the same molecule, the “Hemolysis at 100 μM” value in series [1] turned out to be 0.3%. The IC50 at CCRF-CEM cells came out at 0.55 µM.
Turning to `CC(=O)N[C@@H](CCCNC(=N)N)C(=O)N[C@@H](CCCNC(=N)N)C(=O)N[C@@H](Cc1ccc2ccccc2c1)C(=O)N[C@H]1CSSC[C@@H](C(=O)N[C@@H](CCCNC(=N)N)C(N)=O)NC(=O)[C@H](CCCNC(N)=O)NC(=O)[C@H](CCCNC(=N)N)NC(=O)[C@H](Cc2ccc(O)cc2)NC(=O)[C@@H]2CCCN2C(=O)[C@H]2CCCN2C(=O)[C@H](CCCCN)NC(=O)[C@H](CCCNC(N)=O)NC(=O)[C@H](Cc2ccc(O)cc2)NC1=O` [Example 8] (Ac-RR[2Nal]CY[Cit]K[dP]PYR[Cit]CR-NH2; disulfide 4-13), the results for the IC50 on CXCR4 and at CCRF-CEM cells were 13.9 nM and 5 µM, respectively. Also, in series [2], the “FIGS % inhibition at 200 nM” value is given as 90.6%. The molecule also displayed a CC50 at 48 h in “in vitro” of 226000 nM. In series [1], the “Hemolysis at 100 μM” value was found to be 0.1%.
In the case of `N=C(N)NCCC[C@@H](N)C(=O)N[C@@H](CCCNC(=N)N)C(=O)N[C@@H](Cc1ccc2ccccc2c1)C(=O)N[C@H]1CSSC[C@@H](C(=O)N[C@@H](CCCNC(=N)N)C(N)=O)NC(=O)[C@H](CCCNC(N)=O)NC(=O)[C@H](CCCNC(=N)N)NC(=O)[C@H](Cc2ccc(O)cc2)NC(=O)[C@@H]2CCCN2C(=O)[C@H]2CCCN2C(=O)[C@H](CCCCN)NC(=O)[C@H](CCCNC(N)=O)NC(=O)[C@H](Cc2ccc(O)cc2)NC1=O` [Example 10] (H-[dR]R[2Nal]CY[Cit]K[dP]PYR[Cit]CR-NH2; disulfide 4-13), the values for the IC50 at CXCR4 and on CCRF-CEM cells were 21.5 nM and 0.55 µM, respectively. Moreover, in series [2], the “FIGS % inhibition at 200 nM” value came to 82.0%. Half-maximal cytotoxicity in “in vitro” (CC50 at 48 h) was put at 118000 nM. In series [1], the “Hemolysis at 100 μM” value turned out to be 0.6%.
On the same counts, the results for `N=C(N)NCCC[C@H](NC(=O)[C@@H]1CSSC[C@H](NC(=O)[C@H](Cc2ccc(N)cc2)NC(=O)[C@H](CCCNC(=N)N)NC(=O)[C@@H](N)CCCNC(=N)N)C(=O)N[C@@H](Cc2ccc(O)cc2)C(=O)N[C@@H](CCCNC(N)=O)C(=O)N[C@@H](CCCCN)C(=O)N2CCC[C@@H]2C(=O)N2CCC[C@H]2C(=O)N[C@@H](Cc2ccc(O)cc2)C(=O)N[C@@H](CCCNC(=N)N)C(=O)N[C@@H](CCCNC(N)=O)C(=O)N1)C(N)=O` [Example 12] (H-RR[Phe(4-NH2)]CY[Cit]K[dP]PYR[Cit]CR-NH2; disulfide 4-13) are 13.9 nM, 5 µM, 71.3%, 226000 nM and 0.1%.
`N=C(N)NCCC[C@H](NC(=O)[C@@H]1CSSC[C@H](NC(=O)[C@H](Cc2ccc3ccccc3c2)NC(=O)[C@H](CCCNC(=N)N)NC(=O)CNCCCN)C(=O)N[C@@H](Cc2ccc(O)cc2)C(=O)N[C@@H](CCCNC(N)=O)C(=O)N[C@@H](CCCCN)C(=O)N2CCC[C@@H]2C(=O)N2CCC[C@H]2C(=O)N[C@@H](Cc2ccc(O)cc2)C(=O)N[C@@H](CCCNC(=N)N)C(=O)N[C@@H](CCCNC(N)=O)C(=O)N1)C(N)=O` [Example 15] (H-[Gly(N(CH2)3NH2)]R[2Nal]CY[Cit]K[dP]PYR[Cit]CR-NH2; disulfide 4-13): on CCRF-CEM cells, the IC50 came to 0.57 µM.
On to `N=C(N)NCCC[C@H](NC(=O)[C@@H]1CSSC[C@H](NC(=O)[C@H](Cc2ccc3ccccc3c2)NC(=O)[C@H](CCCNC(=N)N)NC(=O)CNCCCCN)C(=O)N[C@@H](Cc2ccc(O)cc2)C(=O)N[C@@H](CCCNC(N)=O)C(=O)N[C@@H](CCCCN)C(=O)N2CCC[C@@H]2C(=O)N2CCC[C@H]2C(=O)N[C@@H](Cc2ccc(O)cc2)C(=O)N[C@@H](CCCNC(=N)N)C(=O)N[C@@H](CCCNC(N)=O)C(=O)N1)C(N)=O` [Example 16] (H-[Nlys]R[2Nal]CY[Cit]K[dP]PYR[Cit]CR-NH2; disulfide 4-13), for which, at CCRF-CEM cells, the IC50 came out at 1.04 µM.

For the origin of these results see patent US7838496B2, “Template-fixed peptidomimetics as medicaments against HIV and cancer” (Polyphor AG/Ltd., priority 2003, dated 2010).
